Measured values from patent US12329757B2, “Methods for increasing sepiapterin plasma exposure” (PTC Therapeutics MP, Inc., priority 2018, dated 2025).
Like-named read-outs stand apart in the source and are kept apart here.

Legend:
[1] = Food effect on administration of sepiapterin: plasma concentrations of BH4 and sepiapterin in fasted and fed subjects; format: in vivo; settings: sepiapterin 10 mg/kg oral
Procedure: Method: Subjects received 2 oral doses of sepiapterin (10 mg/kg) separated by 1 week in a fasted and fed state. Subjects were fed a standard high-fat (approximately 50 percent of total caloric content of the meal) and high-calorie (approximately 800 to 1000 calories) meal starting 30 minutes prior to receiving their second oral dose of sepiapterin on Day 8.
Sampling for PK analysis occurred predose on Days 1 and 8 (within 30 minutes before dosing) and 0.5 hr, 1 hr, 2 hr, 4 hr, 8 hr, 12 hr, and 24 hr after the doses on Days 1 and 8. The blood concentrations of sepiapterin and BH4 were analyzed by MNG Labs.

[2] = Pharmacokinetic parameters for BH4 after single dose of sepiapterin or BH4 in fasted subjects; format: in vivo
Procedure: Six subjects received sepiapterin in each group and three subjects received BH4 in each group where this treatment was administered. Table 5. Summary of pharmacokinetic parameters for BH4 after administration of single dose of sepiapterin or BH4 in fasted subjects.
Values shown are means of plasma concentrations of BH4 following administration at the doses shown.

[3] = fasted vs fed prior to administration

C[C@H](O)C(=O)C1=Nc2c(nc(N)[nH]c2=O)NC1 [sepiapterin, Sepiapterin]
Sepiapterin Concentration in Plasma, Mean ([1]; fasted, 0 h (predose)): 0 nM | Sepiapterin Concentration in Plasma, Median ([1]; fasted, 0 h (predose)): 0 nM | concentration at 24 h ([1]; fasted, 0 h (predose), read-out: Sepiapterin Concentration in Plasma, Maximum): 0 nM | concentration at 2 h ([1]; fasted, 0 h (predose), read-out: Sepiapterin Concentration in Plasma, Minimum): 0 nM | Sepiapterin Concentration in Plasma, Mean ([1]; fasted, 8 h): 0 nM | Sepiapterin Concentration in Plasma, Median ([1]; fasted, 8 h): 0 nM | concentration at 2 h ([1]; fasted, 8 h, read-out: Sepiapterin Concentration in Plasma, Minimum): 0 nM | Sepiapterin Concentration in Plasma, Mean ([1]; fasted, 12 h): 0 nM | Sepiapterin Concentration in Plasma, Median ([1]; fasted, 12 h): 0 nM | concentration at 2 h ([1]; fasted, 12 h, read-out: Sepiapterin Concentration in Plasma, Minimum): 0 nM | Sepiapterin Concentration in Plasma, Mean ([1]; fasted, 24 h): 0 nM | Sepiapterin Concentration in Plasma, Median ([1]; fasted, 24 h): 0 nM | concentration at 2 h ([1]; fasted, 24 h, read-out: Sepiapterin Concentration in Plasma, Minimum): 0 nM | Sepiapterin Concentration in Plasma, Mean ([1]; fed, 0 h (predose)): 0 nM | Sepiapterin Concentration in Plasma, Median ([1]; fed, 0 h (predose)): 0 nM | concentration at 24 h ([1]; fed, 0 h (predose), read-out: Sepiapterin Concentration in Plasma, Maximum): 0 nM | Sepiapterin Concentration in Plasma, Median ([1]; fed, 0.5 h): 0 nM | concentration at 2 h ([1]; fed, 0.5 h, read-out: Sepiapterin Concentration in Plasma, Minimum): 0 nM | concentration at 2 h ([1]; fed, 4 h, read-out: Sepiapterin Concentration in Plasma, Minimum): 0 nM | Sepiapterin Concentration in Plasma, Median ([1]; fed, 8 h): 0 nM | concentration at 2 h ([1]; fed, 8 h, read-out: Sepiapterin Concentration in Plasma, Minimum): 0 nM | Sepiapterin Concentration in Plasma, Mean ([1]; fed, 12 h): 0 nM | Sepiapterin Concentration in Plasma, Median ([1]; fed, 12 h): 0 nM | concentration at 24 h ([1]; fed, 12 h, read-out: Sepiapterin Concentration in Plasma, Maximum): 0 nM | concentration at 2 h ([1]; fed, 12 h, read-out: Sepiapterin Concentration in Plasma, Minimum): 0 nM | Sepiapterin Concentration in Plasma, Mean ([1]; fed, 24 h): 0 nM | Sepiapterin Concentration in Plasma, Median ([1]; fed, 24 h): 0 nM | concentration at 24 h ([1]; fed, 24 h, read-out: Sepiapterin Concentration in Plasma, Maximum): 0 nM | concentration at 2 h ([1]; fed, 24 h, read-out: Sepiapterin Concentration in Plasma, Minimum): 0 nM | concentration at 0.5 h ([1]; human, plasma, fasted, 0.5 h, read-out: Sepiapterin Concentration in Plasma, Minimum): 0 nM | concentration at 4 h ([1]; human, plasma, fasted, 4 h, read-out: Sepiapterin Concentration in Plasma, Minimum): 0 nM | concentration at 8 h ([1]; human, plasma, fasted, 8 h, read-out: Sepiapterin Concentration in Plasma, Maximum): 0 nM | concentration at 12 h ([1]; human, plasma, fasted, 12 h, read-out: Sepiapterin Concentration in Plasma, Maximum): 0 nM | concentration at 24 h ([1]; human, plasma, fasted, 24 h, read-out: Sepiapterin Concentration in Plasma, Maximum): 0 nM | concentration at 0 h ([1]; human, plasma, fed, 0 h (predose), read-out: Sepiapterin Concentration in Plasma, Minimum): 0 nM | concentration at 1 h ([1]; human, plasma, fed, 1 h, read-out: Sepiapterin Concentration in Plasma, Minimum): 0 nM | concentration at 2 h ([1]; human, plasma, fed, 2 h, read-out: Sepiapterin Concentration in Plasma, Minimum): 0 nM | Cmax of BH4 in the plasma, fasted compared to fed [1, 3]: much lower | Cmax of sepiapterin in the plasma, fasted compared to fed [1, 3]: much higher | AUC0-24 of BH4, sepiapterin compared to BH4 administration [2]: much higher | AUC0-inf of BH4, sepiapterin compared to BH4 administration [2]: much higher
